Tested on: expression of Fwa116 in human blood vessel endothelia cell
Assay: Effect of ox-LDL and soybean genistein on expression of Fwa116 (Northern blotting)
Format: cell-based
Settings: cells treated with ox-LDL (200 μg/mL) and soybean genistein (100 μM) simultaneously, FIG. 3
Description: Low density lipoproteins (LDL) with a density of 1.019 to 1.063 obtained by density gradient centrifugation were oxidized with Cu^2+ for 24 hours, filtrated through a 0.22 μm filter membrane, and stored at 4[…] in a dark place. The value of TBARS was determined and the ox-LDL was separated by electrophoresis on agarose gel. More than 10 nmol/mg of TBARS value and the increase of electrophoretic mobility indicated successful oxidation.
The frozen tube containing human blood vessel endothelia cells was taken out from liquid-nitrogen, and put rapidly into a water bath at 37[…]]. After being melted completely, the cell suspension was inoculated to a 25 mL culture bottle containing 5 mL of RPMI or DMEM with 10% FES. Culture was carried out overnight in an incubator at 37[…] and 5% of CO2 concentration. The medium was replaced on the next day.
When Cells were grown to substantial confluency (with a covering percentage of around 80%), the original medium was discarded. After Cells were rinsed twice with 1× PBS (pH7.4), 0.125% trypsin was added, and the cells were digested for 5-10 minutes at 37 °C. […] The number of cells was counted, and the cell suspension was inoculated to a culture bottle containing 5 mL of RPMI or DMEM with 10% FES to a concentration of 100,000 cells/mL. […]

For `O=c1c(-c2ccc(O)cc2)coc2cc(O)cc(O)c12` [soybean genistein, genistein], the “increase of expression of Fwa116” value was “more than 10 fold”.

From patent US20040082031A1, “Inflammatory inhibition factor fwa116” (priority 2001, published 2004)
